Broadly, the half-life is the time needed for the level to fall by half in the phase considered. As a reminder, the IC50 is the concentration that inhibits the measured activity by half. A higher IC50 goes with lower potency.

Read-outs that look alike come from different tables or passages of the source.

A short description of data set [1]: Half-life determination in human liver microsomes. In kind it is in vitro ADME. As to conditions: for half-life at 1 μM: human, NADPH; for Half-life, % change relative to ulixertinib: mean. The protocol: Human microsomes from a pool of 10 donors was obtained from a commercial source. Microsomes prepared in potassium phosphate buffer were spiked with ulixertinib, Formula 18, Formula 19, and Formula 21 individually in replicates of six at a final concentration of 1 μM. NADPH was used to initiate the experiment; a control of minus NADPH (minus cofactor) was also run in parallel to the human liver microsome stability. After spiking with test article, microsome replicates were placed in a 37° C. incubator with the following time course: 0, 5, 10, 15, 20, 30, 45 and 60 minutes. Samples were extracted with a protein precipitation quench consisting of ice cold acetonitrile containing internal standard (tolbutamide). Samples were analyzed for ulixertinib, Formula 18, Formula 19, and Formula 21. The half-lives of ulixertinib, Formula 18, Formula 19, and Formula 21 were characterized by the […] to determine the elimination rate (ke) and using the formula described below.
[formula] • ke (elimination rate): the slope of ln(percent remaining) vs time (in minutes)
For orientation: Liver microsomes are a subcellular fraction often used to study metabolism.

The target of another data set is T1, CYP1A2 (Homo sapiens, UniProt P05177).
T1 construct: from tissue; host or cells: human liver microsomes, mixed-gender pool of 200
T1 sequence (P05177 1-516): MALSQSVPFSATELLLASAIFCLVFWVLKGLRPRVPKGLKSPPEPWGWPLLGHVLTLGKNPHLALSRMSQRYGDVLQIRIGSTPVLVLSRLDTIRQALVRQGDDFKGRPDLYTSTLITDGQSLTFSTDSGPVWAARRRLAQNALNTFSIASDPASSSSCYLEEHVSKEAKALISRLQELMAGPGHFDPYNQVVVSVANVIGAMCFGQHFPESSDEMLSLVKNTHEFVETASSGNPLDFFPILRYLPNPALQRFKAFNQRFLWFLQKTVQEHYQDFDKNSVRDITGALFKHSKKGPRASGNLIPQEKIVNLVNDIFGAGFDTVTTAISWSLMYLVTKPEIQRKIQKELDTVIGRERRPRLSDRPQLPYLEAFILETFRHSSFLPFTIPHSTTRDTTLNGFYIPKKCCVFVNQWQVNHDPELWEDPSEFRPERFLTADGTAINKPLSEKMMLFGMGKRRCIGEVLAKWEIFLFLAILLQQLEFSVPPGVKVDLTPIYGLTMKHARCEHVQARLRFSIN
The data set is described as follows: In-vitro CYP inhibition study, CYP1A2. It is filed as in vitro ADME. As to conditions: human liver microsomes, substrate Phenacetin (90 μM). As to the method: (§1) Incubations were conducted using a cocktail of seven prototypical CYP substrates to ascertain the potential of each test article to inhibit the metabolism of concomitantly administered drugs. A mixed-gender pool of 200 human liver microsomal samples was used for this study. Incubations were conducted at approximately 37° C. in 200 μL incubation mixtures (pH 7.4) containing water, potassium phosphate buffer (50 mM), MgCl2 (3 mM), EDTA (1 mM), an NADPH regenerating system (NADP [1 mM], glucose 6 phosphate [5 mM], glucose 6 phosphate dehydrogenase [1 Unit/mL]), and probe substrate (i.e., a seven substrate cocktail) at the final concentrations indicated in Table 9. Reactions were initiated by the addition of NADPH-regenerating system and were automatically terminated at approximately 5 minutes by the addition of internal standard mixed in stop reagent, acetonitrile. The samples were centrifuged at 920×g for 10 minutes at 10° C. The supernatant fractions were analyzed by LC-MS/MS. To examine its ability to act as a time-dependent inhibitor of CYP enzymes, each test article (at the same concentrations used to evaluate direct inhibition, (i.e. 0, 0.02, 0.06, 0.2, 0.6, 2, 6, 20 μM) was pre-incubated at 37±2° C. with NADPH-fortified human liver microsomes for approximately 30 minutes. The pre-incubations were initiated by the addition of NADPH-regenerating system. After 30 min, probe substrate incubations were initiated by the addition of probe substrate cocktail. Incubations were terminated and samples were analyzed by LC-MS/MS. When inhibition was observed, the data were processed with a LIMS for the determination of IC50 values by utilizing the Levenberg-Marquardt algorithm to perform non-linear regression fitting of the data to the following 4-parameter sigmoidal-logistic IC50 equation:
(§2) As percent of control values are utilized, the minimum value (Min) is set to zero and the maximum value (Max) is set to 100 (or other values, as appropriate). The LIMS calculates an IC50 value only when it lies within the concentration range of the inhibitor studied. Therefore, when an IC50 value falls outside the concentration range studied, the IC50 values are reported to be greater than the highest concentration of the test article evaluated.

For the next data set, the target named is T2, CYP2C8 (Homo sapiens, UniProt P10632).
T2 construct: from tissue; host or cells: human liver microsomes, mixed-gender pool of 200
T2 sequence (P10632 1-490): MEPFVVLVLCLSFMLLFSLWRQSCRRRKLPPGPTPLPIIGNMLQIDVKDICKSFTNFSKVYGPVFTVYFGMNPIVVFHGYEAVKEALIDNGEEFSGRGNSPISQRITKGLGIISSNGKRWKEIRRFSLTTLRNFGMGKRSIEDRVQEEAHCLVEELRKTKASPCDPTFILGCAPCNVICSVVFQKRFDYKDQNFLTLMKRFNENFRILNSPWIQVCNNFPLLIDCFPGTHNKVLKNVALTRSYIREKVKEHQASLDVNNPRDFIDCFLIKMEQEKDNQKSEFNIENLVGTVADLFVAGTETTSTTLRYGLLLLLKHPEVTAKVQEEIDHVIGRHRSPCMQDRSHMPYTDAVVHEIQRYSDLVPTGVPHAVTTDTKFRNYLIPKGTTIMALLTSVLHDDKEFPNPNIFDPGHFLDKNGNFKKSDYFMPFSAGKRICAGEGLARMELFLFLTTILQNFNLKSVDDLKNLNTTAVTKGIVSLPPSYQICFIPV
Description: In-vitro CYP inhibition study, CYP2C8. In kind it is in vitro ADME. The following applies: human liver microsomes, substrate Paclitaxel (5 μM). As to the method:
as §1, §2

The next data set has as its system CYP3A4/5. The data set is described as follows: In-vitro CYP inhibition study, CYP3A4/5. As to conditions: both sexes, human, human liver microsomes, pH 7.4, probe Midazolam (3 μM), substrate Midazolam (3 μM). In kind it is in vitro ADME. The protocol:
as §1, §2

Another data set relates to CYP1A2 mRNA expression. As to conditions: human, hepatocytes, 24 h.
Another data set has as its system CYP2B6 mRNA expression. The following applies: human, hepatocytes, 24 h.
For a further data set, the system named is CYP3A4 mRNA expression. As to conditions: human, hepatocytes, 24 h.
[2] abbreviates: Rep 1, read-out: Half-life, t½, Rep 1.
Where [3] appears, read: Rep 2, read-out: Half-life, t½, Rep 2.
Setting [4] is: Rep 3, read-out: Half-life, t½, Rep 3.
[5] abbreviates: Rep 4, read-out: Half-life, t½, Rep 4.
[6] abbreviates: Rep 5, read-out: Half-life, t½, Rep 5.
Setting [7] is: Rep 6, read-out: Half-life, t½, Rep 6.
The mark [8] stands for this setting: six replicates, read-out: Half-life, t½, Mean ± SD.

Description for CYP1A2 mRNA expression: (§3) A single preparation of characterized cryopreserved human hepatocytes isolated from non-transplantable human livers was treated in this study. Triplicate wells for each of the cultures were treated in 48-well plates with supplemented MCM (37±2° C.) containing 0.1% v/v DMSO (solvent control), one of three concentrations of each test article (1, 10 and 20 μM) or positive control CYP enzyme inducers omeprazole (50 μM), phenobarbital (1000 μM) or rifampin (20 μM). The cultures were incubated in a humidified culture chamber (37±2° C. at 95% relative humidity, 95/5% air/CO2). Approximately 24 h after treatment, hepatocytes were lysed in Buffer RLT reagent containing β-mercaptoethanol (100:1). The medium was aspirated, and Buffer RLT was added to each well. The cell lysates were prepared by repeated pipetting and shaking. Total RNA was isolated using the RNeasy Mini Kit. RNA quality and concentration were determined by measuring absorbance at 260 and 280 nm on a plate reader. Single-stranded cDNA was prepared from RNA with the RT Master Mix. The RT Master Mix comprises 10×RT buffer, 25× deoxyNTPs, 10× Random primers, RNase Inhibitor (20 U/μL), MultiScribe reverse transcriptase (50 U/μL) and RNase-free water. The RT Master Mix was added to each RNA sample to complete the components of the reaction. No template controls (NTCs) were included in the analysis. For the NTC reactions, RNase-free water was added in place of the RNA sample. The prepared cDNA samples were stored at −20±5° C. following analysis by qRT-PCR. Each PCR was performed in quadruplicate. A Primer Mix was prepared for each Gene Expression assay. A typical Primer Mix contained TaqMan Fast Advanced Master Mix (1×), Gene Expression Assay (1×, 900 nM forward and reverse primers) and RNase-free water. The Reaction Mix was prepared by adding the Primer Mix to cDNA. A percentage of samples (no less than 10%) included NAC (no amplification control) samples. […] Reactions were analyzed on a PCR sequence detection system. The relative quantity of the target cDNA compared with that of the control cDNA (GAPDH) was determined by the ΔΔCt method. Relative quantitation measures the change in mRNA expression in a test sample relative to that in a control sample (e.g., DMSO). This method assumes that the efficiency of the target amplification and the efficiency of the endogenous control amplification are approximately equal.
Description for CYP2B6 mRNA expression: as §3
Description for CYP3A4 mRNA expression: as §3

On to `[2H]C([2H])([2H])C([2H])(Nc1cc(-c2c[nH]c(C(=O)N[C@H](CO)c3cccc(Cl)c3)c2)c(Cl)cn1)C([2H])([2H])[2H]` [Formula 18, 4-(5-chloro-2-((propan-2-yl-d7)amino)pyridin-4-yl)-N-(1-(3-chlorophenyl)-2-hydroxyethyl)-1H-pyrrole-2-carboxamide], for which the “longer half-life than ulixertinib” value in data set [1] (Table 5) came to 21%. In addition, the half-life at 1 μM in data set [1] (setting [2]) stood at 59.2 min; in data set [1] (setting [3]), 58.7 min; in data set [1] (setting [4]), 60.6 min; in data set [1] (setting [5]), 55.8 min; in data set [1] (setting [6]), 57.5 min; in data set [1] (setting [7]) it was 62 min. For the same molecule, the half-life at 1 μM in data set [1] (setting [8]) was found to be 59 ± 2.2 min. Further, in data set [1], the “Half-life, % change relative to ulixertinib” value is “(+21%)”. Besides, the IC50 against CYP1A2 (preincubation 0 min) is > 20 µM; at CYP1A2 (preincubation 30 min), 17 µM; on CYP2C8 (preincubation 0 min), 9.6 µM; against CYP2C8 (preincubation 30 min), 11 µM. In addition, the half-maximal inhibitory concentration (IC50) at 5 min in the data set on CYP3A4/5 (preincubation 0 min) was > 20 µM; with CYP3A4/5 (preincubation 30 min) it was 14 µM. Besides, the “Fold Change in mRNA Expression of CYP1A2” value in the data set with CYP1A2 mRNA expression (1 μM) is on record as 3.02 fold; in the data set on CYP1A2 mRNA expression (10 μM), 5.94 fold. Further, the “Fold Change in mRNA Expression of CYP2B6” value in the data set with CYP2B6 mRNA expression (1 μM) is listed as 1.36 fold; in the data set with CYP2B6 mRNA expression (10 μM), 1.90 fold. Moreover, the “Fold Change in mRNA Expression of CYP3A4” value in the data set on CYP3A4 mRNA expression (1 μM) is reported as 1.83 fold; with CYP3A4 mRNA expression (10 μM) it was 5.39 fold.
With `[2H]C([2H])([2H])C(Nc1cc(-c2c[nH]c(C(=O)N[C@H](CO)c3cccc(Cl)c3)c2)c(Cl)cn1)C([2H])([2H])[2H]` [Formula 19, 4-(5-chloro-2-((propan-2-yl-1,1,1,3,3,3-d6)amino)pyridin-4-yl)-N-(1-(3-chiorophenyl)-2-hydroxyethyl)-1H-pyrrole-2-carboxamide], the “shorter half-life compared to ulixertinib” value in data set [1] (Table 5) is listed as 7%. The half-life at 1 μM in data set [1] (setting [2]) is 43.4 min; in data set [1] (setting [3]) it was 45.2 min; in data set [1] (setting [4]), 46.1 min; in data set [1] (setting [5]), 44.9 min; in data set [1] (setting [6]), 47.8 min; in data set [1] (setting [7]), 44.9 min. The half-life at 1 μM in data set [1] (setting [8]) amounted to 45.4 ± 1.5 min. In data set [1], the “Half-life, % change relative to ulixertinib” value is on record as “(−7%)”. In addition, the IC50 is > 20 µM at CYP1A2 (preincubation 0 min), 19 µM against CYP1A2 (preincubation 30 min), 10 µM at CYP2C8 (preincubation 0 min) and 12 µM against CYP2C8 (preincubation 30 min). For the same molecule, the IC50 at 5 min was > 20 µM in the data set with CYP3A4/5 (preincubation 0 min) and 13 µM with CYP3A4/5 (preincubation 30 min). For the same molecule, the “Fold Change in mRNA Expression of CYP1A2” value came to 3.57 fold in the data set with CYP1A2 mRNA expression (1 μM) and 9.52 fold with CYP1A2 mRNA expression (20 μM). In addition, the “Fold Change in mRNA Expression of CYP2B6” value with CYP2B6 mRNA expression (1 μM) was determined as 1.47 fold; in the data set with CYP2B6 mRNA expression (10 μM), 2.10 fold. The “Fold Change in mRNA Expression of CYP3A4” value is on record as 2.06 fold with CYP3A4 mRNA expression (1 μM) and 9.42 fold in the data set on CYP3A4 mRNA expression (10 μM).
For the molecule `Cl.[2H]C(C)(C)Nc1cc(-c2c[nH]c(C(=O)N[C@H](CO)c3cccc(Cl)c3)c2)c(Cl)cn1` [Formula 21A], the IC50 against CYP1A2 (preincubation 0 min) was > 20 µM; at CYP1A2 (preincubation 30 min), > 20 µM; at CYP2C8 (preincubation 0 min), 19 µM; on CYP2C8 (preincubation 30 min), 19 µM. Besides, the half-maximal inhibitory concentration (IC50) at 5 min was > 20 µM in the data set with CYP3A4/5 (preincubation 0 min) and 17 µM in the data set on CYP3A4/5 (preincubation 30 min). In addition, in the data set on CYP1A2 mRNA expression (20 μM), the “Fold Change in mRNA Expression of CYP1A2” value worked out at 4.00 fold. Further, the “Fold Change in mRNA Expression of CYP2B6” value in the data set with CYP2B6 mRNA expression (1 μM) was found to be 1.08 fold; with CYP2B6 mRNA expression (10 μM), 2.04 fold. In addition, the “Fold Change in mRNA Expression of CYP3A4” value in the data set on CYP3A4 mRNA expression (1 μM) stood at 1.39 fold; in the data set on CYP3A4 mRNA expression (10 μM), 5.29 fold.
Take `CC(C)Nc1cc(-c2c[nH]c(C(=O)N[C@H](CO)c3cccc(Cl)c3)c2)c(Cl)cn1` [Ulixertinib, reference compound]: the half-life at 1 μM was 49.2 min in data set [1] (setting [2]); 51.2 min in data set [1] (setting [3]); 50.3 min in data set [1] (setting [4]); 46.2 min in data set [1] (setting [5]); 48.5 min in data set [1] (setting [6]); 48.1 min in data set [1] (setting [7]). Further, in data set [1] (setting [8]), the half-life at 1 μM turned out to be 48.9 ± 1.8 min. Further, the IC50 against CYP1A2 (preincubation 0 min) is > 20 µM; on CYP1A2 (preincubation 30 min), 13 µM; on CYP2C8 (preincubation 0 min), 8.5 µM; against CYP2C8 (preincubation 30 min), 9.2 µM. Moreover, the values for the IC50 at 5 min in the data set with CYP3A4/5 (preincubation 0 min) and in the data set on CYP3A4/5 (preincubation 30 min) were > 20 µM and 14 µM, respectively. Also, the figures for the “Fold Change in mRNA Expression of CYP1A2” value with CYP1A2 mRNA expression (1 μM) and in the data set on CYP1A2 mRNA expression (20 μM) were 3.73 fold and 6.42 fold, respectively. The “Fold Change in mRNA Expression of CYP2B6” value in the data set on CYP2B6 mRNA expression (1 μM) stood at 1.25 fold; with CYP2B6 mRNA expression (10 μM), 1.99 fold. The “Fold Change in mRNA Expression of CYP3A4” value in the data set with CYP3A4 mRNA expression (1 μM) was found to be 1.52 fold; in the data set on CYP3A4 mRNA expression (10 μM) it was 6.84 fold.

For the origin of these results see patent publication US20250026733A1, “DEUTERATED ANALOGS OF PYROLE INHIBITORS OF ERK, SYNTHESIS THEREOF AND INTERMEDIATES THERETO” (BIOMED VALLEY DISCOVERIES, INC., priority 2022, published 2025).
